In BindingDB's records for doi:10.1080/14756360701404100 (Balikesir University Science & Art Faculty, 2008):

What was measured:
Details in all cases: pH 10
Carbonic anhydrase 2 [1] = target: T1, Carbonic anhydrase 2 (Homo sapiens, UniProt P00918); test: Hydratase Activity Assay
Procedure: (§1) Carbonic anhydrase enzyme activity was assayed both with respect to its hydratase activity (i.e. hydration of CO2) and to its esterase activity (i.e. hydrolysis of an ester of p-nitrophenylacetate)

Carbonic anhydrase 1 [2] = target: T2, Carbonic anhydrase 1 (Homo sapiens, UniProt P00915); test: Hydratase Activity Assay
Procedure: as §1

Carbonic anhydrase 2 [3] = target: T1, Carbonic anhydrase 2; test: Esterase Activity Assay
Procedure: as §1

Carbonic anhydrase 1 [4] = target: T2, Carbonic anhydrase 1; test: Esterase Activity Assay
Procedure: as §1

T2 sequence (P00915 whole entry): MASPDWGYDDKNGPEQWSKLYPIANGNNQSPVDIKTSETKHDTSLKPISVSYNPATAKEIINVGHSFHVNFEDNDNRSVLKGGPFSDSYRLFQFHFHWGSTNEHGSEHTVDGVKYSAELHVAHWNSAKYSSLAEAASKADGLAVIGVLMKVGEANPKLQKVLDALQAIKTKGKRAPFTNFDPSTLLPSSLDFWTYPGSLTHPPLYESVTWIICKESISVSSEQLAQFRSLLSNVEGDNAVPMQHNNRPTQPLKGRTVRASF

Which IC50 (Carbonic anhydrase 2 [1]) does the source give for `O=c1oc2cc(O)c(O)cc2cc1-c1ccccc1` [DCP] here?
Its IC50 is 61.7 µM.

And the IC50 (Carbonic anhydrase 1 [2])?
Its IC50 is 124 µM.

What about the IC50 (Carbonic anhydrase 2 [3]) of the same compound?
Its IC50 is 246 µM.

What about the IC50 (Carbonic anhydrase 1 [4]) of the same compound?
The IC50 was 160 µM.

`Cc1cccc(-c2cc3cc(O)c(O)cc3oc2=O)c1` [MPC] was tested. Which IC50 (Carbonic anhydrase 2 [1]) did it give?
The IC50 was 504 µM.

What about the IC50 (Carbonic anhydrase 1 [2]) of the same compound?
Its IC50 is 320 µM.

What about the IC50 (Carbonic anhydrase 2 [3]) of the same compound?
The IC50 was 201 µM.

And the IC50 (Carbonic anhydrase 1 [4])?
Its IC50 is 837 µM.

Which results are given for `Cc1ccccc1-c1cc2cc(O)c(O)cc2oc1=O` [OPC]?
IC50 (Carbonic anhydrase 2 [1]): 363 µM; IC50 (Carbonic anhydrase 1 [2]): 206 µM; IC50 (Carbonic anhydrase 2 [3]): 163 µM; IC50 (Carbonic anhydrase 1 [4]): 153 µM

For `Cc1ccc(-c2cc3cc(O)c(O)cc3oc2=O)cc1` [PPC], which IC50 (Carbonic anhydrase 2 [1]) is on record?
The IC50 was 561 µM.

What about the IC50 (Carbonic anhydrase 1 [2]) of the same compound?
Its IC50 is 272 µM.

What about the IC50 (Carbonic anhydrase 2 [3]) of the same compound?
Its IC50 is 127 µM.

What about the IC50 (Carbonic anhydrase 1 [4]) of the same compound?
Its IC50 is 256 µM.
